The values that follow come from patent US7179926B2, “Aryloxyalkylamine NK-1/SSRI inhibitors” (Bristol-Myers Squibb Company, priority 2004, dated 2007).

In assay [1] the target is T1, human serotonin transporters (Homo sapiens, UniProt P31645).
T1 construct: expressed in transfected cells
Nature of the assay: Serotonin transporter binding assay ([3H]-citalopram competition, HEK-hSERT cell membranes). To be noted: 1 nM [3H]-citalopram, 1 hr at 25° C., read-out: SERT IC50. How it is done:
Serotonin transporter binding assay. HEK-293 cells that stably express human serotonin transporters (HEK-hSERT cells) were grown at 37° C. in 5% CO2 as a monolayer in medium consisting of EMEM supplemented with 10% fetal bovine serum and G418 sulfate (500 μg/ml). To prepare membranes for radioligand binding experiments, cells were rinsed twice with phosphate-buffered saline (138 mM NaCl, 4.1 mM KCl, 5.1 mM Na2PO4, 1.5 mM KH2PO4, 11.1 mM glucose, pH 7.4). Cells were transferred from plates to polypropylene tubes (16×100 mm), centrifuged at 1,200×g for 5 min and were frozen at −80° C. until assay. Following centrifugation, pellets were resuspended by homogenization in buffer consisting of 50 mM Tris (pH 7.7 at 25° C.), 120 mM NaCl and 5 mM KCl and then centrifuged at 32,000×g for 10 min. Following centrifugation, supernatants were discarded and pellets were resuspended in buffer consisting of 50 mM Tris (pH 7.4 at 25° C.), 150 mM NaCl and 5 mM KCl. Membrane homogenates (200 μl/plate) were incubated with 1 nM [^3H]-citalopram (specific activity=85 Ci/mmol) and increasing concentrations of test compounds for 1 hr at 25° C. in a total volume of 250 μl. The assay buffer consisted of 50 mM Tris (pH 7.4 at 25° C.), 120 mM NaCl and 5 mM KCl (pH 7.4 with conc. HCl). Plates were incubated for 1 hr at 25° C., then filtered through 0.5% PEI treated Whatman GF/B filters using a Brandel cell harvester. Filters were washed three times with 3 ml of ice-cold tris wash buffer. Non-specific binding was defined with 10 μM fluoxetine. Amount of radioligand bound in the presence and absence of competitor was analyzed by plotting (−)log drug concentration versus the amount of radioligand specifically bound. The midpoint of the displacement curve (IC50, nM), signifies the potency. Ki values can be calculated using the method of Cheng and Prusoff (Cheng and Prusoff, Biochemical Pharmacology, Vol 22, pp. 3099–3108, Pergamon Press (1973)).

Assay [2] has as its target T2, neurokinin-1 (NK-1) receptor (Homo sapiens, UniProt P25103).
T2 construct: endogenously expresses the neurokinin-1 (NK-1) receptor; endogenous in cells; host or cells: U373 human glioblastoma-astrocytoma cells (membranes)
The assay can be described thus: NK-1 Binding assay ([125I] Substance P competition, U373 cell membranes). To be noted: Bolton Hunter labeled [125I] Substance P, 30 min at 20° C. As for the experimental part:
NK-1 Binding assay. U373 cells, a human glioblastoma-astrocytoma cell line that endogenously expresses the neurokinin-1 (NK-1) receptor, were grown in a monolayer culture at 37° C. in 5% CO2 and fed with Minimum Essential Medium (MEM) supplemented with 10% fetal bovine serum. Membranes were prepared as follows: Cells were washed twice with ice-cold phosphate-buffered saline (pH 7.4) and then incubated for 5–10 minutes with ice-cold 10 mM Tris buffer (pH 7.4) containing 5 mM EDTA. Cells were removed from plates, homogenized, and centrifuged at 32,000×g for 20 minutes. The resulting supernatant was discarded, and the pellet resuspended by homogenization in 50 mM Tris buffer (pH 7.4) containing 1 mM EDTA and centrifuged at 32,000×g for 20 minutes. The resulting supernatant was discarded, and the pellet resuspended by homogenization in NK-1 binding assay buffer (50 mM Tris-HCL (pH 7.4), 3 mM MnCl2, 200 μg/ml BSA, 5 μg/ml chymostatin, 40 μg/ml bacitracin and 4 μg/ml leupeptin).
On the day of an experiment the membrane preparation was thawed, homogenized and diluted with NK-1 binding assay buffer to the appropriate concentration. Competition binding assays were performed in 96 well plate format by incubating membranes (5–10 μg/well) with Bolton Hunter labeled [^125I] Substance P, at a concentration of […], and concentrations of drugs ranging from 10000 to 0.01 nM. Samples were incubated for 30 min at 20° C. then filtered through GF/B glass fiber filters (pretreated with 1% polyethyleneimine and 0.3% Triton X-100) using a Brandel cell harvester. The filters were then washed with 10 ml ice cold 50 mM Tris-HCL (pH 7.4) containing 3 mM MgCl2. Non-specific was defined in the presence of 2 μM L-733,060 (a non-peptide NK-1 antagonist). The amount of radioligand bound in the presence and absence of competitor was analyzed by plotting (−)log drug concentration versus the amount of radioligand specifically bound. The midpoint of the displacement curve (IC50, nM), signifies the potency. Ki values can be calculated using the method of Cheng and Prusoff (Cheng and Prusoff, Biochemical Pharmacology, Vol 22, pp. 3099–3108, Pergamon Press (1973)).

T1 sequence (P31645 whole entry): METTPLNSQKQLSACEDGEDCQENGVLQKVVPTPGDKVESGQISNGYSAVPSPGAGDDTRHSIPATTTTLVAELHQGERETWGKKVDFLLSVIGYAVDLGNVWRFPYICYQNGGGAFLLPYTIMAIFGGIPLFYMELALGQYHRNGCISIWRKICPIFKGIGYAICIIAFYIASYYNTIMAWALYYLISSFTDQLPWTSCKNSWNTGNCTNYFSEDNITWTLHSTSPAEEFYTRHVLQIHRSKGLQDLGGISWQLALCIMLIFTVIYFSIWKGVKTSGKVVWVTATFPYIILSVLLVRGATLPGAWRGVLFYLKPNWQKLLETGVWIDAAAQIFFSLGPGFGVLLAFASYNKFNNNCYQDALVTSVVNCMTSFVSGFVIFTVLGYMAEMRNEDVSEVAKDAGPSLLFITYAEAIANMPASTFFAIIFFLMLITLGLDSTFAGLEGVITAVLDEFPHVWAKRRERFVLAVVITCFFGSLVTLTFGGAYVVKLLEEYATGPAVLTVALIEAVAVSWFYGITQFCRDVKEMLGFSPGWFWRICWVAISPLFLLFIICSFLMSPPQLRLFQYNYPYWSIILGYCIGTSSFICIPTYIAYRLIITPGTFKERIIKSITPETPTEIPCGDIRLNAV
T2 sequence (P25103 whole entry): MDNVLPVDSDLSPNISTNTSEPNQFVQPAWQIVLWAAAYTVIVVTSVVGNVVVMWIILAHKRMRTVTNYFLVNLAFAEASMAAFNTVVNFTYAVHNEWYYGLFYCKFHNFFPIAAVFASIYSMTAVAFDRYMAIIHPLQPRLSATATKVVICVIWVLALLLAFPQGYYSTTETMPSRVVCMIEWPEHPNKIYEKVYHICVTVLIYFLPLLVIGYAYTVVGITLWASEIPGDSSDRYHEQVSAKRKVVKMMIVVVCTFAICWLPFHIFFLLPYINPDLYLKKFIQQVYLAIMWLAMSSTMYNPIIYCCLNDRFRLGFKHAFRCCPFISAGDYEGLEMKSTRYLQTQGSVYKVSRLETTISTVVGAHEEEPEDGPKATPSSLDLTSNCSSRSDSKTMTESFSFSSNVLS

Regarding `NCCC(O)(CSCc1cc(C(F)(F)F)cc(C(F)(F)F)c1)c1ccccc1` (stereo not drawn) [Example 80, 1-(3,5-bis(trifluoromethyl)benzylthio)-4-amino-2-phenylbutane-2-ol], the figures for the IC50 in assay [1] and in assay [2] were 1 to 100 nM and 100 to 300 nM, respectively.
The matching figures for `COc1ccc(C(O)(CCN)COCc2cc(C(F)(F)F)cc(C(F)(F)F)c2)c(C)c1` (stereo not drawn) [Example 28, 1-(3,5-bis(trifluoromethyl)benzyloxy)-4-amino-2-(4-methoxy-2-methylphenyl)butan-2-ol]: 1 to 100 nM and 100 to 300 nM.
For `NCCC(COCc1cc(C(F)(F)F)cc(C(F)(F)F)c1)c1ccccc1` (stereo not drawn) [Example 71, 1-(3,5-bis(trifluoromethyl)benzyloxy)-4-amino-2-phenylbutane] the same measures were 100 to 300 nM and 1 to 100 nM.
Consider `NCCC(O)(COCc1cc(Br)cc(Br)c1)c1ccccc1` (stereo not drawn) [Example 68, 1-(3,5-dibromobenzyloxy)-4-amino-2-phenylbutan-2-ol], for which the IC50 in assay [1] and in assay [2] was 1 to 100 nM in each case.
Consider `COc1ccccc1COCC(O)(CCN)c1ccccc1` (stereo not drawn) [Example 62, 1-(2-methoxybenzyloxy)-4-amino-2-phenylbutan-2-ol], for which the IC50 in assay [1] is 1 to 100 nM; in assay [2] it was over 300 nM.
For `NCCC(O)(COCc1cc(F)cc(F)c1)c1ccccc1` (stereo not drawn) [Example 64, 1-(3,5-difluorobenzyloxy)-4-amino-2-phenylbutan-2-ol] the same measures were 1 to 100 nM and 100 to 300 nM.
For `Cc1ccc(C(O)(CCN)COCc2cc(C(F)(F)F)cc(C(F)(F)F)c2)c(C)c1` (stereo not drawn) [Example 30, 1-(3,5-bis(trifluoromethyl)benzyloxy)-4-amino-2-(2,4-dimethylphenyl)butan-2-ol] the same measures were 1 to 100 nM and 1 to 100 nM.
The matching figures for `Cc1cc(F)ccc1C(O)(CCN)COCc1cc(C(F)(F)F)cc(C(F)(F)F)c1` (stereo not drawn) [Example 31, 1-(3,5-bis(trifluoromethyl)benzyloxy)-4-amino-2-(4-fluoro-2-methylphenyl)butan-2-ol]: 1 to 100 nM and 1 to 100 nM.
For `CCCc1ccc(C(O)(CCN)COCc2cc(C(F)(F)F)cc(C(F)(F)F)c2)cc1` (stereo not drawn) [Example 35, 1-(3,5-bis(trifluoromethyl)benzyloxy)-4-amino-2-(4-propylphenyl)butan-2-ol], the values for the IC50 in assay [1] and in assay [2] were 100 to 300 nM and over 300 nM, respectively.
As for `COc1cccc(C(O)(CCN)COCc2cc(C(F)(F)F)cc(C(F)(F)F)c2)c1` (stereo not drawn) [Example 14, 1-(3,5-bis(trifluoromethyl)benzyloxy)-4-amino-2-(3-methoxyphenyl)butan-2-ol], the IC50 in assay [1] and in assay [2] was 1 to 100 nM throughout.
As for `NCCC(O)(COCc1cccc(OC(F)(F)F)c1)c1ccccc1` (stereo not drawn) [Example 69, 1-(3-(trifluoromethoxy)benzyloxy)-4-amino-2-phenylbutan-2-ol], the IC50 was 1 to 100 nM in assay [1] and over 300 nM in assay [2].
For the compound `COc1ccc(F)cc1C(O)(CCN)COCc1cc(C(F)(F)F)cc(C(F)(F)F)c1` (stereo not drawn) [Example 25, 1-(3,5-bis(trifluoromethyl)benzyloxy)-4-amino-2-(5-fluoro-2-methoxyphenyl)butan-2-ol], the IC50 in assay [1] fell in the range of 100 to 300 nM; in assay [2], 1 to 100 nM.
The matching figures for `NCCC(O)(COCc1cc(C(F)(F)F)cc(C(F)(F)F)c1)c1ccc(F)cc1` (stereo not drawn) [Example 41, 1-(3,5-bis(trifluoromethyl)benzyloxy)-4-amino-2-(4-fluorophenyl)butan-2-ol]: 1 to 100 nM and 1 to 100 nM.
As for `Cc1cc(Cl)ccc1C(O)(CCN)COCc1cc(C(F)(F)F)cc(C(F)(F)F)c1` (stereo not drawn) [Example 40, 1-(3,5-bis(trifluoromethyl)benzyloxy)-4-amino-2-(4-chloro-2-methylphenyl)butan-2-ol], the IC50 in assay [1] and in assay [2] was 1 to 100 nM throughout.
`NCCC(O)(COCc1cc(C(F)(F)F)cc(C(F)(F)F)c1)c1ccc2ccccc2c1` (stereo not drawn) [Example 11, 1-(3,5-bis(trifluoromethyl)benzyloxy)-4-amino-2-(naphthalen-2-yl)butan-2-ol]: the IC50 in assay [1] was 1 to 100 nM; in assay [2] it was 100 to 300 nM.
The matching figures for `NCC(O)(COCc1cc(C(F)(F)F)cc(C(F)(F)F)c1)c1ccccc1` (stereo not drawn) [Example 2, 1-(3,5-bis(trifluoromethyl)benzyloxy)-3-amino-2-phenylpropan-2-ol]: 1 to 100 nM and 1 to 100 nM.
For `CC(CN)(COCc1cc(C(F)(F)F)cc(C(F)(F)F)c1)c1ccccc1` (stereo not drawn) [Example 77, 1-(3,5-bis(trifluoromethyl)benzyloxy)-3-amino-2-methyl-2-phenylpropane] the same measures were 100 to 300 nM and 100 to 300 nM.
For `Cc1c(F)cccc1C(O)(CCN)COCc1cc(C(F)(F)F)cc(C(F)(F)F)c1` (stereo not drawn) [Example 36, 1-(3,5-bis(trifluoromethyl)benzyloxy)-4-amino-2-(3-fluoro-2-methylphenyl)butan-2-ol] the same measures were 1 to 100 nM and 1 to 100 nM.
Turning to `Cc1cccc(C(O)(CCN)COCc2cc(C(F)(F)F)cc(C(F)(F)F)c2)c1` (stereo not drawn) [Example 17, 1-(3,5-bis(trifluoromethyl)benzyloxy)-4-amino-2-m-tolylbutan-2-ol], the IC50 in assay [1] and in assay [2] was 1 to 100 nM each time.
On to `CNCCC(O)(COCc1cc(C(F)(F)F)cc(C(F)(F)F)c1)c1ccccc1` (stereo not drawn) [Example 6, 1-(3,5-bis(trifluoromethyl)benzyloxy)-4-(methylamino)-2-phenylbutan-2-ol], for which the concentration for half-maximal inhibition (IC50) in assay [1] and in assay [2] was 1 to 100 nM each time.
On to `NCCC(O)(COCc1cc(C(F)(F)F)cc(C(F)(F)F)c1)c1cccs1` (stereo not drawn) [Example 44, 1-(3,5-bis(trifluoromethyl)benzyloxy)-4-amino-2-(thiophen-2-yl)butan-2-ol], for which the IC50 in assay [1] and in assay [2] was 1 to 100 nM each time.
Turning to `Cc1cccc(COCC(O)(CCN)c2ccccc2)c1` (stereo not drawn) [Example 60, 1-(3-methylbenzyloxy)-4-amino-2-phenylbutan-2-ol], the results for the IC50 in assay [1] and in assay [2] were 1 to 100 nM and over 300 nM, respectively.
The matching figures for `Cc1ccc(C(O)(CCN)COCc2cc(C(F)(F)F)cc(C(F)(F)F)c2)c2ccccc12` (stereo not drawn) [Example 22, 1-(3,5-bis(trifluoromethyl)benzyloxy)-4-amino-2-(4-methylnaphthalen-1-yl)butan-2-ol]: 1 to 100 nM and 100 to 300 nM.
For `Cc1ccccc1COCC(O)(CCN)c1ccccc1` (stereo not drawn) [Example 67, 1-(2-methylbenzyloxy)-4-amino-2-phenylbutan-2-ol] the same measures were 100 to 300 nM and over 300 nM.
The matching figures for `NCCC(O)(COCc1cc(F)cc(C(F)(F)F)c1)c1ccccc1` (stereo not drawn) [Example 51, 1-(3-fluoro-5-(trifluoromethyl)benzyloxy)-4-amino-2-phenylbutan-2-ol]: 1 to 100 nM and 1 to 100 nM.
The compound `NCCC(O)(CNCc1cc(C(F)(F)F)cc(C(F)(F)F)c1)c1ccccc1` (stereo not drawn) [Example 81] came in with an IC50 in assay [2] of 100 to 300 nM.
